Several values for one entry are separate records, joined by “and”; a condition that tells them apart may be missing. Identical values can stand only once. Inconclusive results and toxic doses are left out.
Test system: P388 leukemia ip, CD2F1 mice, survival T/C
Assay: NCI In Vivo Anticancer Drug Screen. Data for tumor model P388 Leukemia (intraperitoneal) in CD2F1 (CDF1) mice
Conditions: endpoint: median survival time, higher = longer survival
How it was run: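 Mice carrying the transplanted tumor received test compound or vehicle. Survival was recorded in each group, and the value is the treated-group measurement divided by that of the vehicle-treated control group.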

OCC(O)CO
T/C (dose: 0.5 % in 0.5 ml injection vol, schedule: Q01DX009 (ip), vehicle: water): 100 % of control | T/C (dose: 1.0 % in 0.5 ml injection vol, schedule: Q01DX009 (ip), vehicle: water): 93 % of control | T/C (dose: 2.0 % in 0.5 ml injection vol, schedule: Q01DX009 (ip), vehicle: water): 99 % of control and 105 % of control | T/C (dose: 4.0 % in 0.5 ml injection vol, schedule: Q01DX009 (ip), vehicle: water): 105 % of control and 111 % of control | T/C (dose: 8.0 % in 0.5 ml injection vol, schedule: Q01DX009 (ip), vehicle: water): 104 % of control and 94 % of control | T/C (dose: 16.0 % in 0.5 ml injection vol, schedule: Q01DX009 (ip), vehicle: water): 101 % of control and 102 % of control

CN1CCC2(CC1)OCCCO2
T/C (dose: 25.0 mg/kg/injection, schedule: Q01DX005 (ip), vehicle: saline with Tween-80): 102 % of control | T/C (dose: 50.0 mg/kg/injection, schedule: Q01DX005 (ip), vehicle: saline with Tween-80): 94 % of control | T/C (dose: 50.0 mg/kg/injection, schedule: Q01DX005 (ip), vehicle: saline): 99 % of control | T/C (dose: 75.0 mg/kg/injection, schedule: Q01DX001 (ip), vehicle: saline with Tween-80): 105 % of control | T/C (dose: 100.0 mg/kg/injection, schedule: Q01DX005 (ip), vehicle: saline with Tween-80): 100 % of control and 88 % of control | T/C (dose: 100.0 mg/kg/injection, schedule: Q01DX005 (ip), vehicle: saline): 96 % of control | T/C (dose: 125.0 mg/kg/injection, schedule: Q01DX001 (ip), vehicle: saline with Tween-80): 101 % of control | T/C (dose: 200.0 mg/kg/injection, schedule: Q01DX005 (ip), vehicle: saline): 102 % of control | T/C (dose: 250.0 mg/kg/injection, schedule: Q01DX001 (ip), vehicle: saline with Tween-80): 93 % of control

COc1ccc(N2CC=C(c3ccccc3)OP2(=O)N2CC2)cc1 (stereo not given)
T/C (dose: 50.0 mg/kg/injection, schedule: Q01DX005 (ip), vehicle: Klucel (hydroxypropylcellulose) (HPC)): 106 % of control | T/C (dose: 100.0 mg/kg/injection, schedule: Q01DX005 (ip), vehicle: Klucel (hydroxypropylcellulose) (HPC)): 105 % of control | T/C (dose: 200.0 mg/kg/injection, schedule: Q01DX005 (ip), vehicle: Klucel (hydroxypropylcellulose) (HPC)): 95 % of control

CN[C@H]1CCc2cc(OC)c(OC)c(OC)c2-c2ccc(OC)c(=O)cc21
T/C (dose: 0.5 mg/kg/injection, schedule: Q01DX009 (ip), vehicle: saline): 109 % of control | T/C (dose: 0.5 mg/kg/injection, schedule: Q01DX009 (ip), vehicle: water): 109 % of control | T/C (dose: 0.63 mg/kg/injection, schedule: Q01DX009 (ip), vehicle: water): 112 % of control | T/C (dose: 1.0 mg/kg/injection, schedule: Q01DX009 (ip), vehicle: saline with Tween-80): 117 % of control | T/C (dose: 1.0 mg/kg/injection, schedule: Q01DX009 (ip), vehicle: saline): 104 % of control and 124 % of control | T/C (dose: 2.0 mg/kg/injection, schedule: Q01DX009 (ip), vehicle: saline with Tween-80): 98 % of control | T/C (dose: 2.0 mg/kg/injection, schedule: Q01DX009 (ip), vehicle: saline): 104 % of control and 121 % of control | T/C (dose: 4.0 mg/kg/injection, schedule: Q01DX009 (ip), vehicle: saline with Tween-80): 95 % of control | T/C (dose: 4.0 mg/kg/injection, schedule: Q01DX009 (ip), vehicle: saline): 104 % of control | T/C (dose: 4.0 mg/kg/injection, schedule: Q04DX003 (ip), vehicle: saline with Tween-80): 103 % of control | T/C (dose: 5.0 mg/kg/injection, schedule: Q01DX009 (ip), vehicle: water): 117 % of control | T/C (dose: 8.0 mg/kg/injection, schedule: Q01DX009 (ip), vehicle: saline): 121 % of control | T/C (dose: 8.0 mg/kg/injection, schedule: Q01DX009 (ip), vehicle: water): 152 % of control | T/C (dose: 8.0 mg/kg/injection, schedule: Q04DX003 (ip), vehicle: saline with Tween-80): 101 % of control | T/C (dose: 10.0 mg/kg/injection, schedule: Q01DX009 (ip), vehicle: water): 155 % of control | T/C (dose: 16.0 mg/kg/injection, schedule: Q04DX003 (ip), vehicle: saline with Tween-80): 102 % of control | T/C (dose: 32.0 mg/kg/injection, schedule: Q04DX003 (ip), vehicle: saline with Tween-80): 102 % of control

CC(/C=N\N=C(N)N)=N/NC(N)=O
T/C (dose: 50.0 mg/kg/injection, schedule: Q01DX009 (ip), vehicle: saline): 92 % of control | T/C (dose: 100.0 mg/kg/injection, schedule: Q01DX009 (ip), vehicle: saline): 108 % of control | T/C (dose: 200.0 mg/kg/injection, schedule: Q01DX009 (ip), vehicle: saline): 115 % of control

COc1cc2c(cc1OC)C1CC3(CCN1CC2)CC(=O)OC3=O (stereo not given)
T/C (dose: 50.0 mg/kg/injection, schedule: Q01DX005 (ip), vehicle: DMSO): 108 % of control | T/C (dose: 100.0 mg/kg/injection, schedule: Q01DX005 (ip), vehicle: DMSO): 120 % of control | T/C (dose: 200.0 mg/kg/injection, schedule: Q01DX005 (ip), vehicle: DMSO): 119 % of control

N#C/C(=C\c1ccccc1)C(=O)Nc1ccccc1
T/C (dose: 6.25 mg/kg/injection, schedule: Q01DX009 (ip), vehicle: suspension in saline): 99 % of control | T/C (dose: 12.5 mg/kg/injection, schedule: Q01DX009 (ip), vehicle: suspension in saline): 100 % of control | T/C (dose: 25.0 mg/kg/injection, schedule: Q01DX009 (ip), vehicle: suspension in saline): 99 % of control | T/C (dose: 50.0 mg/kg/injection, schedule: Q01DX009 (ip), vehicle: suspension in saline): 97 % of control

Reference: PubChem BioAssay AID330 (DTP/NCI, 2004)
